Measurements: US20180116220A1, “NOVEL TRIAZOLE DERIVATIVES” (BAYER CROPSCIENCE AKTIENGESELLSCHAFT, priority 2015, published 2018)

How the values were obtained:
[1] = LogP by HPLC on reversed phase columns (EEC directive 79/831 Annex V.A8); assay type: physicochemical; conditions: for chromatographic logP: reversed phase HPLC column
Method: [table] If more than one LogP value is available within the same method, all the values are given and separated by “+”. […] Lambda-max-values were determined using UV-spectra from 200 nm to 400 nm and the peak values of the chromatographic signals. Measurement of LogP values was performed as outlined above.

[2] = system: Phakopsora pachyrhizi; assay: Example S: in vivo preventive Phakopsora test (soybeans); comparison vs. known compounds; conditions: rate of application 5 ppm, evaluated 7 days after inoculation
Method: The test is evaluated 7 days after the inoculation.

[3] = system: Venturia inaequalis; assay: Example R: in vivo preventive Venturia test (apples); comparison vs. known compounds; conditions: rate of application 10 ppm, evaluated 10 days after inoculation
[4] = [a] LC-UV, acidic range, 0.1% formic acid in water and acetonitrile as eluent
[5] = [b] LC-UV, neutral range, 0.001 molar ammonium acetate solution in water and acetonitrile as eluent

Structure (SMILES) | LogP [1, 4] | LogP [1, 5] | further results
Fc1ccc(C2(C3(Oc4ccc(Cl)cc4)CC3)CO2)c(F)c1 (stereo not shown) [Example V-1, 2-[1-(4-chlorophenoxy)cyclopropyl]-2-(2,4-difluorophenyl)oxirane] |  |  | chromatographic logP [1, 4]: 4.57; chromatographic logP [1, 5]: 4.58
COC(Cn1cncn1)(c1ccc(F)cc1F)C1(Oc2c(F)cccc2Br)CC1 (racemic) [Example I-25] | 3.83^[a] |  | 
OC(Cn1cncn1)(c1ccc(Cl)cc1F)C1(Oc2ccc(F)cc2F)CC1 (racemic) [Example I-16] | 3.44^[a] |  | 
OC(Cn1cncn1)(c1ccc(F)cc1F)C1(Oc2ccccc2I)CC1 (racemic) [Example I-04] | 3.64^[a]; | 3.64^[b] | 
Cc1cc(Br)ccc1OC1(C(O)(Cn2cncn2)c2ccc(F)cc2F)CC1 (racemic) [Example I-13] | 3.99^[a]; | 4.08^[b] | 
C[Si](C)(C)COC(Cn1cncn1)(c1ccc(F)cc1F)C1(Oc2ccc(Cl)cc2)CC1 (racemic) [Example I-34] | 5.68^[a] |  | 
OC(Cn1cncn1)(c1ccc(F)cc1F)C1(Oc2ccc(I)cc2)CC1 (racemic) [Example I-08] | 3.78^[a]; | 3.80^[b] | 
OC(Cn1cncn1)(c1ccc(F)cc1F)C1(Oc2ccccc2)CC1 (racemic) [Example I-11] | 3.67^[a]; | 3.71^[b] | 
O=C(c1ccc(F)cc1F)C1(Oc2ccc(Br)cc2F)CC1 [IV-11] | 4.33 | 4.36 | 
OC(Cn1cncn1)(c1ccc(F)cc1F)C1(Oc2ccc(Cl)cc2)CC1 (stereo not shown) [Example I-10, 1-[1-(4-chlorophenoxy)cyclopropyl]-1-(2,4-difluorophenyl)-2-(1H-1,2,4-triazol-1-yl)ethanol] |  |  | chromatographic logP [1, 4]: 3.48; Efficacy in % [2]: 95%; Efficacy in % [3]: 100%
OC(Cn1cncn1)(c1ccc(F)cc1F)C1(Oc2c(F)cccc2Cl)CC1 (racemic) [Example I-22] | 3.39^[a] |  | 
OC(Cn1cncn1)(c1ccc(F)cc1F)C1(Oc2ccc(F)cc2Cl)CC1 (racemic) [Example I-02] | 3.47^[a]; | 3.46^[b] | 
C#CCOC(Cn1cncn1)(c1ccc(F)cc1F)C1(Oc2ccc(Cl)cc2)CC1 (racemic) [Example I-31] | 3.90^[a] |  | 
O=C(c1ccc(F)cc1F)C1(Oc2ccc(Br)cc2)CC1 [IV-1, [1-(4-bromophenoxy)cyclopropyl](2,4-difluorophenyl)methanone] |  |  | chromatographic logP [1, 4]: 4.32
O=C(c1ccc(F)cc1F)C1(Oc2ccc(Cl)cc2F)CC1 [IV-3] | 4.23 | 4.24 | 
CCCOC(Cn1cncn1)(c1ccc(F)cc1F)C1(Oc2ccc(Cl)cc2)CC1 (racemic) [Example I-32] | 4.73^[a] |  | 
OC(Cn1cncn1)(c1ccc(F)cc1F)C1(Oc2ccc(Br)cc2F)CC1 (racemic) [Example I-09] | 3.56^[a]; | 3.54^[b] | 
N#Cc1cc(I)ccc1OC1(C(=O)c2ccc(F)cc2F)CC1 [IV-13] | 3.90 | 3.92 | 

Second part, led by results:

LogP [1, 4] | LogP [1, 5] | Structure (SMILES) | further results
3.99^[a] |  | Fc1ccc(C2(C3(Oc4ccccc4F)CC3)CO2)c(F)c1 (stereo not shown) [Example V-4] | 
4.44^[a] |  | Fc1ccc(C2(C3(Oc4cccc(Cl)c4F)CC3)CO2)c(F)c1 (racemic) [Example V-26] | 
4.58 | 4.66 | Fc1ccc(C2(C3(Oc4ccccc4I)CC3)CO2)c(F)c1 (stereo not shown) [Example V-8] | 
5.08^[a] |  | Fc1cc(Cl)ccc1C1(C2(Oc3ccc(Cl)cc3)CC2)CO1 (racemic) [Example V-22] | 
4.26^[a] |  | O=C(c1ccc(F)cc1F)C1(Oc2c(F)cccc2Cl)CC1 [IV-19] | 
4.56^[a] |  | Fc1ccc(OC2(C3(c4ccc(Cl)cc4F)CO3)CC2)c(F)c1 (stereo not shown) [Example V-17] | 
